Measurements from patent publication EP4782453A1 (Beyang Therapeutics Co., Ltd., priority 2023, dated 2025).

Experiments:
[1] = tested on: MOLM-13 (carrying MLL-AF9); experiment: Inhibition of proliferation of human tumor cells (Alamar Blue, 7 days), MOLM-13; format: cell-based; conditions: Homo sapiens, MOLM-13 cells (carrying MLL-AF9), method calls the value GI50
Procedure, shortened: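 Cells seeded at 4,000/well (MV-4-11, MOLM-13) or 3,000/well (KG-1a) in serum-supplemented IMDM or RPMI-1640, 37°C, 5% CO2, then exposed to 3- or 4-fold compound dilutions in duplicate for 7 days. Alamar Blue fluorescence read; GI50 derived against Day 7 0.1% DMSO (high) and Day 0 (low) controls.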

[2] = tested on: MV-4-11 (carrying MLL-AF4); experiment: Inhibition of proliferation of human tumor cells (Alamar Blue, 7 days), MV-4-11; format: cell-based; conditions: Homo sapiens, MV4-11, 168 h, MV-4-11 cells (carrying MLL-AF4), method calls the value GI50
Text: Experimental Example 2: Evaluation of Inhibitory Activity of Compounds Against Proliferation of Human Tumor Cells
• Human acute lymphoblastic leukemia cells MV-4-11, purchased from American Type Culture Collection, Catalog Number: CRL-9591; • Human acute myeloid leukemia cells MOLM-13, purchased from COBIOER BIOSCIENCES CO., LTD, Catalog Number: CBP60678; • Human acute myeloid leukemia cells KG-1a, purchased from American Type Culture Collection, Catalog Number: CCL-246.1; • Inverted Microscope, purchased from Olympus Tokyo; • Countess™ Automated Cell Counter, purchased from Invitrogen, Model: C10281; and • Multilabel Reader, purchased from Bio-Tek, Model: Synergy HT.
MV-4-11 cells were cultured in an IMDM medium containing 10% fetal bovine serum, KG-a cells were cultured in an IMDM medium containing 20% fetal bovine serum, or MOLM-13 cells were cultured in an RPMI-1640 medium containing 20% fetal bovine serum, each supplemented with 100 U·mL^-1 penicillin and 100 µg·mL^-1 streptomycin. These cells were cultured at 37°C with 5% CO2. The suspensions of individual cell lines were prepared in their respective media and seeded into 96-well plates at a density of 4,000 cells/well for MV-4-11 and MOLM-13 cells, or 3,000 cells/well for KG-1a cells. On the day of the experiment, a compound stock solution was diluted in a 3-fold or 4-fold gradient using DMSO. Each gradient-diluted stock solution was then further diluted 250-fold with a complete medium to prepare a series of working solutions at different concentrations. Subsequently, 100 µL of working solution (containing a 2-fold concentration series of the test compound) was added to each well, with duplicate wells set up for each concentration.
Seven days after compound addition (on Day 7), an Alamar Blue assay reagent (MCE, HY-111391 / CS-0040317) was added to measure the fluorescence intensity in each well. Wells containing the cells in the growth medium supplemented with 0.1% DMSO (Day 7) served as high-read control wells. The readouts from the wells containing the cells in the growth medium supplemented with 0.1% DMSO on the day of compound addition (Day 0) served as low-reading control well. GraphPad Prism software was used to calculate the concentration required to inhibit 50% of cell proliferation (GI50), which serves as a cell proliferation inhibition activity index.

Menin-MLL = target: T1, Menin-MLL (Homo sapiens, UniProt O00255); experiment: Inhibitory activity against Menin-MLL binding (fluorescence polarization); conditions: fluorescence polarization; 150 nM His-Menin, 15 nM FITC-MLL; 25°C for 60 min; read-out: Menin-MLL IC50
T1 construct: His-Menin (M1-L615 end); purchased BIORTUS BP9210
T1 sequence (O00255 1-615 isoform O00255-1): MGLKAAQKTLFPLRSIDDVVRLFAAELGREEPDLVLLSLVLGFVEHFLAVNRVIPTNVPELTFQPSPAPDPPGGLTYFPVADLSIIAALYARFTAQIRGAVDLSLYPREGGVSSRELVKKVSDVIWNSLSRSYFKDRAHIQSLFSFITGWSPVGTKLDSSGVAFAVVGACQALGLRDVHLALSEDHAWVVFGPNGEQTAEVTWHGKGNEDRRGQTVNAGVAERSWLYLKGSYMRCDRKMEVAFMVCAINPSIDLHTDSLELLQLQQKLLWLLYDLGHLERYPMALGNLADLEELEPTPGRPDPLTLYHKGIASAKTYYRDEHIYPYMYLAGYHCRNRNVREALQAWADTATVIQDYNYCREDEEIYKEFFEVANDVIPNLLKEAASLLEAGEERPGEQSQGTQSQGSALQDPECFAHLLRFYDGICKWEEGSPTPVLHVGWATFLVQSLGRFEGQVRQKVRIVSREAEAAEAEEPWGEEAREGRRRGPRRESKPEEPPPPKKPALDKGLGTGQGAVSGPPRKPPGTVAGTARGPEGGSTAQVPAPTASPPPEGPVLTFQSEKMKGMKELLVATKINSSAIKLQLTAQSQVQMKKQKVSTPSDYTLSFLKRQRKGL
Procedure, shortened: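 His-Menin (M1-L615, 150 nM) preincubated with compound 15 min at 25 °C in HEPES pH 7.5, 50 mM NaCl, 1 mM DTT, 0.01% BSA, then 15 nM FITC-MLL4-43 peptide added for 60 min at 25 °C. Fluorescence polarization read; IC50 from 4-parameter logistic fit, duplicates.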

| SMILES | IC50 ([1]; 168 h) [nM] | IC50 [2] [nM] | IC50 (Menin-MLL) [nM] | IC50 ([1]; MOLM-13, 168 h) [nM] |
| --- | --- | --- | --- | --- |
| Cc1nc(F)c2c(-c3ccc(F)cc3C(=O)N3[C@H](C)COC[C@H]3C)cc(C3CN(CC4CCN(C(=O)CC(C)C)CC4)C3)cn12 [Example 218] | 11 | 6 | 13 | – |
| Cc1nc(F)c2c(-c3ccc(F)cc3C(=O)N3[C@H](C)COC[C@H]3C)cc(C3CN(CC4CCN(C(=O)C(F)F)CC4)C3)cn12 [Example 219] | 14 | 12 | 12 | – |
| Cc1nc(F)c2c(-c3ccc(F)cc3C(=O)N3[C@H](C)COC[C@H]3C)cc(C3CN(CC4CCN(C(=O)C5CCOCC5)CC4)C3)cn12 [Example 221] | 27 | 12 | 27 | – |
| CNC(=O)N1CCC(CN2CC(c3cc(-c4ccc(F)cc4C(=O)N4[C@H](C)COC[C@H]4C)c4c(F)nc(C)n4c3)C2)CC1 [Example 222] | 9 | 4.4 | 7 | – |
| COCCC(=O)N1CCC(CN2CC(c3cc(-c4ccc(F)cc4C(=O)N4[C@H](C)COC[C@H]4C)c4c(F)nc(C)n4c3)C2)CC1 [Example 223] | 19 | 8.1 | 15 | – |
| CC(=O)N1CCC(CN2CC(c3cc(-c4ccc(F)cc4C(=O)N4CCOC[C@H]4C)c4c(F)nc(C)n4c3)C2)CC1 [Example 225] | 60 | 25 | 28 | – |
| Cc1nc(F)c2c(-c3ccc(F)cc3C(=O)N3[C@H](C)COC[C@H]3C)cc(C3CN(CC4CCN(C(=O)CC#N)CC4)C3)cn12 [Example 226] | 5.3 | 2.1 | 7.5 | – |
| Cc1cncc2c(-c3ccc(F)cc3C(=O)N3[C@H](C)COC[C@H]3C)cc(CC3CN(CC4CCOCC4)C3)n12 [Example 230] | – | 1 | 2 | 2.9 |
| CCC(=O)N1CCC(CN2CC(c3cc(-c4ccc(F)cc4C(=O)N4[C@H](C)COC[C@H]4C)c4c(F)nc(C)n4c3)C2)CC1 [Example 231] | 16 | 6.1 | 22.5 | – |
| Cc1nc(F)c2c(-c3ccc(F)cc3C(=O)N3[C@H](C)COC[C@H]3C)cc(C3CN(CC4CCN(C(=O)c5cncnc5)CC4)C3)cn12 [Example 234] | 14 | 5.8 | 11 | – |
| Cc1ncc2c(-c3ccc(F)cc3C(=O)N3CCOC[C@H]3C)cc(C3CN(CC4CCOCC4)C3)cn12 [Example 243, (3R)-4-[5-fluoro-2-(3-methyl-6-{1-[(oxacyclohexan-4-yl)methyl]azacyclobutan-3-yl}imidazo[1,5-a]pyridin-8-yl)benzoyl]-3-methylmorpholine] | 200 | 42 | 31.5 | – |
| Cc1nc(F)c2c(-c3ccc(F)cc3C(=O)N3CCOC[C@H]3C)cc(C3CN(C(CC[C@H]4CNCCO4)C(C)C)C3)cn12 (stereo partly drawn) [Example 244, (3R)-4-{5-fluoro-2-[1-fluoro-3-methyl-6-(1-{4-methyl-1-[(2S)-morpholin-2-yl]pentan-3-yl}azacyclobutan-3-yl)imidazo[1,5-a]pyridin-8yl]benzoyl}-3-methylmorpholine] | 64 | 13 | 17 | – |
| Cc1nc(F)c2c(-c3ccc(F)cc3C(=O)N3CCOC[C@H]3C)cc(C3CN(CC4CCN(C(=O)CC#N)CC4)C3)cn12 [Example 249] | 44 | 50 | 24 | – |
| CNC(=O)N1CCC(CN2CC(c3cc(-c4ccc(F)cc4C(=O)N4CCOC[C@H]4C)c4c(F)nc(C)n4c3)C2)CC1 [Example 250] | 45 | 26 | 17 | – |
| Cc1nc(F)c2c(-c3ccc(F)cc3C(=O)N3CCOC[C@H]3C)cc(C3CN(CC4CCN(C(=O)N5CC(F)(F)C5)CC4)C3)cn12 [Example 258] | 49 | 36 | 50 | – |
| COC(=O)N1CCC(CN2CC(c3cc(-c4ccc(F)cc4C(=O)N4CCOC[C@H]4C)c4c(F)nc(C)n4c3)C2)CC1 [Example 259] | 110 | 55 | 59 | – |

More lines, in order of falling IC50 ([1]; 168 h), values ahead:

| IC50 ([1]; 168 h) [nM] | IC50 [2] [nM] | IC50 (Menin-MLL) [nM] | SMILES | IC50 ([1]; MOLM-13, 168 h) [nM] |
| --- | --- | --- | --- | --- |
| 130 | 54 | 34 | Cc1nc(F)c2c(-c3ccc(F)cc3C(=O)N3CCOC[C@H]3C)cc(C3CN([C@@H](CC[C@H]4CNCCO4)C(C)C)C3)cn12 [Example 244-2, (3R)-4-[5-fluoro-2-(1-fluoro-3-methyl-6-{1-[(3S)-4-methyl-1-[(2S)-morpholin-2-yl]pentan-3-yl]azacyclobutan-3-yl}imidazo[1,5-a]pyridin-8yl)benzoyl]-3-methylmorpholine] | – |
| 63 | 34 | 30.5 | Cc1nc(F)c2c(-c3ccc(F)cc3C(=O)N3CCOC[C@H]3C)cc(C3CN(CC4CCN(C(=O)C5(O)CC5)CC4)C3)cn12 [Example 248] | – |
| 36 | 14 | 26 | COCC(=O)N1CCC(CN2CC(c3cc(-c4ccc(F)cc4C(=O)N4[C@H](C)COC[C@H]4C)c4c(F)nc(C)n4c3)C2)CC1 [Example 224] | – |
| 34 | 17 | 17.5 | Cc1nc(F)c2c(-c3ccc(F)cc3C(=O)N3CCOC[C@H]3C)cc(C3CN(CC4CCOCC4)C3)cn12 [Example 232, (3R)-4-[5-fluoro-2-(1-fluoro-3-methyl-6-{1-[(oxacyclohexan-4-yl)methyl]azacyclobutan-3-yl}imidazo[1,5-a]pyridin-8-yl)benzoyl]-3-methylmorpholine] | – |
| 33 | 13 | 13 | Cc1nc(F)c2c(-c3ccc(F)cc3C(=O)N3CCOC[C@H]3C)cc(C3CN(CC4CCN(c5cncnc5)CC4)C3)cn12 [Example 266, (3R)-4-{5-fluoro-2-[1-fluoro-3-methyl-6-(1-{[1-(pyrimidin-5-yl)piperidin-4-yl]methyl}azacyclobutan-3-yl)imidazo[1,5-a]pyridin-8yl]benzoyl}-3-methylmorpholine] | – |
| 28 | 5.9 | 9.5 | Cc1nc(F)c2c(-c3ccc(F)cc3C(=O)N3[C@H](C)COC[C@H]3C)cc(C3CN(CC4CCN(C(=O)N5CC(F)(F)C5)CC4)C3)cn12 [Example 242] | – |
| 27 | 11 | 18 | Cc1nc(F)c2c(-c3ccc(F)cc3C(=O)N3CCOC[C@H]3C)cc(C3CN([C@@H](C)C4CCOCC4)C3)cn12 [Example 238-2, (3R)-4-[5-fluoro-2-(1-fluoro-3-methyl-6-{1-[(1S)-1-(oxacyclohexan-4-yl)ethyl]azacyclobutan-3-yl}imidazo[1,5-a]pyridin-8-yl)benzoyl]-3-methylmorpholine] | – |
| 22 | 9.2 | 9.5 | Cc1nc(F)c2c(-c3ccc(F)cc3C(=O)N3[C@H](C)COC[C@H]3C)cc(C3CN(CC4CCN(C(=O)c5cn[nH]c5)CC4)C3)cn12 [Example 247] | – |
